Measurements taken from ChEMBL document CHEMBL1201862, “PubChem BioAssay data set” (2004).
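96-well plates; 48 h exposure; 5 concentrations. Endpoints by linear interpolation between flanking doses. Not reached: highest tested concentration assigned. Abbreviation: GI50, concentration required for 50% inhibition of growth.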 Calls of active or inactive are those of the source. Cut-off read from the data, not from the text of the source: active = GI50 up to about 1.1 µM and inactive = higher.

Columns and labels:
Assay in all cases: DTP human tumour cell line panel, 48 h
HOP-62 = system: HOP-62
M19-MEL = system: M19-MEL
RPMI-8226 = system: RPMI-8226
NCI-H226 = system: NCI-H226
A549 = system: A549
UO-31 = system: UO-31
786-0 = system: 786-0
HOP-92 = system: HOP-92
SW-620 = system: SW-620
OVCAR-3 = system: OVCAR-3
HT-29 = system: HT-29
SK-MEL-28 = system: SK-MEL-28
NCI-H460 = system: NCI-H460
UACC-257 = system: UACC-257
MOLT-4 = system: MOLT-4
CCRF-CEM = system: CCRF-CEM
OVCAR-5 = system: OVCAR-5
RXF 393 = system: RXF 393
SR = system: SR
MDA-MB-435 = system: MDA-MB-435

Measured: GI50

CSC(C1c2ccccc2N(C)C2=NC(=O)N(C)C(=O)C21Cl)S(=O)(=O)c1ccc(C)cc1 (stereo not drawn)
inactive: HOP-62 > 100 µM | M19-MEL 33.4 µM | RPMI-8226 26.2 µM | NCI-H226 > 100 µM | A549 > 100 µM | UO-31 79.8 µM | 786-0 18.8 µM | HOP-92 24.9 µM | SW-620 26.6 µM | OVCAR-3 18.9 µM | HT-29 34.1 µM | SK-MEL-28 25 µM | NCI-H460 > 100 µM | UACC-257 79.1 µM | MOLT-4 17.5 µM | CCRF-CEM 9.04 µM | OVCAR-5 > 100 µM

CC1CC#CCOC(=O)CCCC1=O (stereo not drawn)
inactive: HOP-62 > 100 µM | M19-MEL > 100 µM | RXF 393 > 100 µM | RPMI-8226 > 100 µM | NCI-H226 > 100 µM | A549 > 100 µM | 786-0 > 100 µM | SW-620 > 100 µM | OVCAR-3 > 100 µM | HT-29 > 100 µM | SK-MEL-28 > 100 µM | NCI-H460 > 100 µM | MOLT-4 > 100 µM | CCRF-CEM > 100 µM

C[N+](C)=c1[nH]c2ccccc2[nH]1
inactive: HOP-62 > 100 µM | M19-MEL > 100 µM | RXF 393 > 100 µM | RPMI-8226 > 100 µM | A549 > 100 µM | UO-31 > 100 µM | 786-0 > 100 µM | HOP-92 > 100 µM | SW-620 > 100 µM | OVCAR-3 > 100 µM | HT-29 > 100 µM | SK-MEL-28 > 100 µM | NCI-H460 > 100 µM | UACC-257 > 100 µM | MOLT-4 > 100 µM | CCRF-CEM > 100 µM | OVCAR-5 > 100 µM

CCOc1ccccc1NC(=O)CSc1nnc(Cc2ccccc2)o1
inactive: HOP-62 > 100 µM | M19-MEL 34.5 µM | RXF 393 35.7 µM | RPMI-8226 35.6 µM | NCI-H226 25.2 µM | A549 > 100 µM | UO-31 23.9 µM | 786-0 17.9 µM | SW-620 16.6 µM | OVCAR-3 17.1 µM | HT-29 35.3 µM | SK-MEL-28 71.4 µM | NCI-H460 20.2 µM | UACC-257 29.7 µM | MOLT-4 23 µM | CCRF-CEM 33.5 µM | OVCAR-5 66.1 µM

COP12(OC)NC(=O)OC1(C(F)(F)F)c1ccccc1O2 (stereo not drawn)
inactive: M19-MEL > 100 µM | RXF 393 > 100 µM | NCI-H226 > 100 µM | A549 > 100 µM | 786-0 > 100 µM | OVCAR-3 > 100 µM | HT-29 > 100 µM | SK-MEL-28 > 100 µM | NCI-H460 > 100 µM | UACC-257 > 100 µM | MOLT-4 > 100 µM | CCRF-CEM > 100 µM

C(=C1\CCC/C(=C/c2ccccc2)C1=NNc1ccccc1)/c1ccccc1
inactive: HOP-62 46.7 µM | M19-MEL > 100 µM | RXF 393 38.2 µM | RPMI-8226 > 100 µM | A549 > 100 µM | UO-31 > 100 µM | 786-0 > 100 µM | HOP-92 > 100 µM | SW-620 > 100 µM | OVCAR-3 > 100 µM | HT-29 > 100 µM | SK-MEL-28 > 100 µM | NCI-H460 > 100 µM | UACC-257 > 100 µM | MOLT-4 > 100 µM | CCRF-CEM > 100 µM | OVCAR-5 > 100 µM

N=C(CC(=O)Nc1ccc(Cl)cc1)Nc1ccccc1
inactive: HOP-62 > 100 µM | SR > 100 µM | M19-MEL > 100 µM | RXF 393 > 100 µM | NCI-H226 > 100 µM | A549 > 100 µM | UO-31 > 100 µM | 786-0 > 100 µM | SW-620 > 100 µM | OVCAR-3 > 100 µM | HT-29 > 100 µM | SK-MEL-28 > 100 µM | NCI-H460 > 100 µM | UACC-257 > 100 µM | MOLT-4 > 100 µM | CCRF-CEM > 10 µM | OVCAR-5 > 100 µM

C/C(CC(=O)CCCC(=O)Nc1ccc(Cl)cc1Cl)=N/NC(=O)CC#N
inactive: M19-MEL > 100 µM | RXF 393 > 100 µM | RPMI-8226 > 100 µM | NCI-H226 > 100 µM | A549 > 100 µM | UO-31 > 100 µM | 786-0 > 100 µM | SW-620 > 100 µM | OVCAR-3 > 100 µM | HT-29 > 100 µM | SK-MEL-28 > 100 µM | NCI-H460 > 100 µM | UACC-257 > 100 µM | MOLT-4 > 100 µM | CCRF-CEM > 100 µM | OVCAR-5 > 100 µM

CC(=O)OC1(C)C(=O)OC1(C)C(C)=O (stereo not drawn)
inactive: M19-MEL > 100 µM | RXF 393 > 100 µM | RPMI-8226 > 100 µM | NCI-H226 > 100 µM | A549 > 100 µM | UO-31 > 100 µM | 786-0 > 100 µM | HOP-92 > 100 µM | SW-620 > 100 µM | OVCAR-3 > 100 µM | HT-29 > 100 µM | SK-MEL-28 > 100 µM | UACC-257 > 100 µM | MOLT-4 > 100 µM | CCRF-CEM > 100 µM | OVCAR-5 > 100 µM

COc1cccc(C(=O)C2C(=O)N(C)CCc3ccccc32)c1OC (stereo not drawn)
inactive: HOP-62 > 100 µM | M19-MEL > 100 µM | RXF 393 > 100 µM | RPMI-8226 > 100 µM | NCI-H226 > 100 µM | A549 > 100 µM | UO-31 > 100 µM | 786-0 > 100 µM | HOP-92 > 100 µM | SW-620 > 100 µM | OVCAR-3 > 100 µM | HT-29 > 100 µM | SK-MEL-28 > 100 µM | NCI-H460 > 100 µM | UACC-257 > 100 µM | MOLT-4 > 100 µM | CCRF-CEM > 100 µM

CC(Oc1ccc(Cl)cc1Cl)C(=O)NN1C(=O)CSC1c1ccccc1 (stereo not drawn)
inactive: HOP-62 47.5 µM | SR 3.89 µM | RXF 393 54.7 µM | RPMI-8226 49.2 µM | NCI-H226 24.2 µM | A549 39.3 µM | MDA-MB-435 > 100 µM | UO-31 > 100 µM | 786-0 43.5 µM | HOP-92 27.7 µM | SW-620 > 100 µM | OVCAR-3 96.4 µM | HT-29 > 100 µM | SK-MEL-28 50.5 µM | NCI-H460 > 100 µM | UACC-257 53.2 µM | MOLT-4 > 100 µM | CCRF-CEM 66.7 µM | OVCAR-5 > 100 µM

CCOc1ccccc1N1CSc2nnc(-c3ccccc3)n2C1
inactive: HOP-62 > 100 µM | SR 44.4 µM | RXF 393 > 100 µM | RPMI-8226 33.8 µM | NCI-H226 > 100 µM | A549 > 100 µM | MDA-MB-435 > 100 µM | UO-31 > 100 µM | 786-0 > 100 µM | HOP-92 > 100 µM | SW-620 49 µM | OVCAR-3 > 100 µM | HT-29 73.3 µM | SK-MEL-28 > 100 µM | NCI-H460 > 100 µM | UACC-257 > 100 µM | MOLT-4 > 100 µM | CCRF-CEM 20 µM | OVCAR-5 > 100 µM
